The text below walks through data of US20210244028A1, “TREATMENT FOR REMOVING ECTOPARASITES FROM FISH” (priority 2018, published 2021).

This data set deals with farmed Atlantic salmon. The experiment in a line: Observation of fish during field well boat treatment (Example 4). In kind it is in vivo. The note with it: 20 ppm, 60 minutes. The protocol: The effectiveness of imidacloprid against pre-adult and adult stages of L. salmonis and Caligus sp. infections on farmed Atlantic salmon was investigated by performing pre- and post-treatment sea lice counts on salmon undergoing a treatment with imidacloprid. This trial was conducted at a commercial salmon farm in Norway. The salmon were pumped onto a well boat and were exposed to 20 ppm imidacloprid for 60 minutes. The average weight of the salmon was 3.5 kg and the average number of salmon per pen was 180,000. 30 fish per pen were assessed for L. salmonis and Caligus sp., and the number of each L. salmonis life stage found was recorded. This was performed within 24 hours prior to treatment, and within 24 hours after treatment.
The numbers of sea lice observed per fish for this trial for each of the four tested pens according to sea lice life cycle state, pre- or post-administration of active are presented in Table 5.

Molecules are shown by their SMILES.

As to `O=[N+]([O-])NC1=NCCN1Cc1ccc(Cl)nc1` [imidacloprid], the “Fish behaviour observed throughout treatment” value was “no adverse behaviours seen”.
